Measured values published in BindingDB's records for doi:10.1021/jm0204035 (Glaxosmithkline, 2003).

Tests used:
[1] = target: Trans-2-enoyl-ACP reductase II (Streptococcus pneumoniae, UniProt Q9FBC5); assay: Enzyme Inhibition Assay; settings: 30 °C
Description: (§1) Assays were carried out in half-area, 96-well microtiter plates. Compounds were evaluated in assay mixtures containing components specific for each enzyme. Inhibitors were varied over the range 0.01-10 uM. The consumption of NAD(P)H was monitored for 20 min at 30 °C by following the change in absorbance at 340 nm. IC50 values were estimated from a fit of the initial velocities to a standard equation.

[2] = target: T1, Enoyl-[acyl-carrier-protein] reductase [NADH] FabI (Escherichia coli (strain K12), UniProt P0AEK4); assay: Enzyme Inhibition Assay; settings: pH 6.5; 30 °C
T1 sequence (P0AEK4 whole entry): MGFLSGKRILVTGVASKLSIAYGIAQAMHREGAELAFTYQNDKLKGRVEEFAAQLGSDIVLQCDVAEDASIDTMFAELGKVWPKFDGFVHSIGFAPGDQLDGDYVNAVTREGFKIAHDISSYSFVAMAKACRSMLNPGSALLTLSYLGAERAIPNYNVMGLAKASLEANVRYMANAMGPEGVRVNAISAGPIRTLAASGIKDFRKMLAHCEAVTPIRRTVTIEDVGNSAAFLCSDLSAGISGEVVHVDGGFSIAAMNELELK
Description: as §1

Chain of Trans-2-enoyl-ACP reductase II (Q9FBC5 whole entry): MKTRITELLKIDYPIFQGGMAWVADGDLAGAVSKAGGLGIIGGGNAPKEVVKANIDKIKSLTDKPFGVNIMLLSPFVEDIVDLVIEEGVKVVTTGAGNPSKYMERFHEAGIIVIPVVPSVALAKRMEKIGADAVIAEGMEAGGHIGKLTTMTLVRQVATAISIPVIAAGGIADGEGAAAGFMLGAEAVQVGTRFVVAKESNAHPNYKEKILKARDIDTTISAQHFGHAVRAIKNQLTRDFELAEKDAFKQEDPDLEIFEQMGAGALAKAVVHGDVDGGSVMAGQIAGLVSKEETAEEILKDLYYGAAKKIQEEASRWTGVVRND

Row | IC50 [1] [µM] | IC50 [2] [µM] | SMILES
1 |  | < 0.06 | Cc1[nH]c2ccccc2c1CN(C)C(=O)/C=C/c1cnc2c(c1)CCC(=O)N2 [(2E)-N-methyl-N-[(2-methyl-1H-indol-3-yl)methyl]-3-(7-oxo-5,6,7,8-tetrahydro-1,8-naphthyridin-3-yl)prop-2-enamide]
2 | > 30 | < 0.07 | Cc1cccc2c(CN(C)C(=O)/C=C/c3cnc4c(c3)CCC(=O)N4)c(C)n(C)c12 [(2E)-N-methyl-3-(7-oxo-5,6,7,8-tetrahydro-1,8-naphthyridin-3-yl)-N-[(1,2,7-trimethyl-1H-indol-3-yl)methyl]prop-2-enamide]
3 | > 30 |  | Cc1c(CN(C)C(=O)/C=C/c2cnc3c(c2)CCC(=O)N3)c2ccccc2n1C [(E)-N-(1,2-Dimethyl-1H-indol-3-ylmethyl)-N-methyl-3-(7-oxo-5,6,7,8-tetrahydro-1,8-naphthyridin-3-yl)acrylamide]

Row | SMILES | IC50 [1] [µM] | IC50 [2] [µM]
4 | Oc1cc(Cl)ccc1Oc1ccc(Cl)cc1Cl | > 30 | 
